Assay results from patent US20120135923A1, “Use of Melanocortins to Treat Dyslipidemia” (IPSEN PHARMA, S.A.S., priority 2009, published 2012).
Like-named read-outs stand apart in the source and are kept apart here. One block for each compound: values may come before it.

How the values were obtained:
hMC5-R [1] = target: T1, hMC5-R (Homo sapiens, UniProt P33032); assay: Radioligand binding assay, [125I]-NDP-α-MSH competition, CHO-K1 membranes
T1 construct: expressed in transfected cells; host or cells: CHO-K1
Method: Cellular membranes used for the in vitro receptor binding assays were obtained from transgenic CHO-K1 cells stably expressing hMC-R receptor subtypes 1, 3, 4 or 5. […] The pellets were resuspended in the same buffer and centrifuged at 50,000 g for 10 minutes at approximately 4° C. The washed pellets containing the cellular membranes were stored at approximately −80° C.
Cell membranes (1-10 μg protein/well) prepared as described above were incubated in 50 mM Tris-HCl at pH 7.4 containing 0.2% bovine serum albumin (BSA), 5 mM MgCl2, 1 mM CaCl2 and 0.1 mg/mL bacitracin, with increasing concentrations of the test compound and 0.1-0.3 nM [^25I]-NDP-α-MSH for approximately 90-120 minutes at approximately 37° C. […] Filters were washed three times with 50 mM Tris-HCl at pH 7.4 at a temperature of approximately 0-4° C. and then assayed for radioactivity using a Packard Topcount® scintillation counter. Binding data were analyzed by computer-assisted non-linear regression analysis (XL fit; IDBS).

hMC1-R = target: T2, hMC1-R (Homo sapiens, UniProt Q01726); assay: cyclic AMP bioassay (ECL) in CHO-K1 cells; type: cell-based
T2 construct: expressed in transfected cells; host or cells: CHO-K1

hMC3-R = target: T3, hMC3-R (Homo sapiens, UniProt P41968); assay: cyclic AMP bioassay (ECL) in CHO-K1 cells; type: cell-based
T3 construct: expressed in transfected cells; host or cells: CHO-K1

hMC4-R = target: T4, hMC4-R (Homo sapiens, UniProt P32245); assay: cyclic AMP bioassay (ECL) in CHO-K1 cells; type: cell-based
T4 construct: expressed in transfected cells; host or cells: CHO-K1

hMC5-R [2] = target: T1, hMC5-R; assay: cyclic AMP bioassay (ECL) in CHO-K1 cells; type: cell-based

T2 sequence (Q01726 whole entry): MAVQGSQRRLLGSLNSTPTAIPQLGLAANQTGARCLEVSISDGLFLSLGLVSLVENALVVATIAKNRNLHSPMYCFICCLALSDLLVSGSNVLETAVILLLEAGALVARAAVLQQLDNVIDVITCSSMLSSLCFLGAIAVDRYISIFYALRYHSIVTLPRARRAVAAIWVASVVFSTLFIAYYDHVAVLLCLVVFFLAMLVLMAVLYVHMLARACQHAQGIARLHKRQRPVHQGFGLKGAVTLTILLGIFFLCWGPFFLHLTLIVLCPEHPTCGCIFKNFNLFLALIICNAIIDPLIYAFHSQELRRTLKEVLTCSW
T4 sequence (P32245 whole entry): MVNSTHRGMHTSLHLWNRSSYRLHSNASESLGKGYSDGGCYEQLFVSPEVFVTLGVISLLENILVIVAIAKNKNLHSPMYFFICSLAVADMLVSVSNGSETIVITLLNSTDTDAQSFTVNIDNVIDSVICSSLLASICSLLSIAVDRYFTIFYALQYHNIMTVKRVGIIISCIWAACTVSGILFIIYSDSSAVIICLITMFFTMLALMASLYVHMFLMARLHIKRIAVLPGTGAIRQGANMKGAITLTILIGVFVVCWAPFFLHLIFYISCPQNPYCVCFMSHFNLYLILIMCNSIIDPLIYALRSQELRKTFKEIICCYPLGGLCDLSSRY
T3 sequence (P41968 whole entry): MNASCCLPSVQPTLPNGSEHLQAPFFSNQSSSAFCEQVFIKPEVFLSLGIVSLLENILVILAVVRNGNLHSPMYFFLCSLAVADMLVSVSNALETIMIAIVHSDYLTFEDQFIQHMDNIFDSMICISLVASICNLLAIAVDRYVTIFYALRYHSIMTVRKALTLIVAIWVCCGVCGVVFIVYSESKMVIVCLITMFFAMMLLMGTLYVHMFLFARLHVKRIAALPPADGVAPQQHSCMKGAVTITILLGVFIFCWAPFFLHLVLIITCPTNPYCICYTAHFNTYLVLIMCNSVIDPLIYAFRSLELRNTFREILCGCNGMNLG
T1 sequence (P33032 whole entry): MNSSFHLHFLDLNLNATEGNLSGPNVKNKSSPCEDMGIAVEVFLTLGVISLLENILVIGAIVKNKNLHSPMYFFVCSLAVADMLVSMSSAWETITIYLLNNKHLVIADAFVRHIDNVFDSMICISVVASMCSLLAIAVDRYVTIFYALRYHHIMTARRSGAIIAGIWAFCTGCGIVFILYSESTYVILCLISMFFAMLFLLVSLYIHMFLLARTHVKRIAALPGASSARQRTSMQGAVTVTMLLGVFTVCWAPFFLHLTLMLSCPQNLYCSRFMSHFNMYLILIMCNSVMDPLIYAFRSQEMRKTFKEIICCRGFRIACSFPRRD

Compound: CC(=O)N[C@H]1CSSC[C@@H](C(=O)N2CCC[C@H]2C(=O)N2CCC[C@H]2C(=O)N[C@@H](CCCNC(=N)N)C(=O)N[C@@H](CC(=O)O)C(=O)NCCC(=O)N[C@@H](CCCNC(=N)N)C(=O)N[C@@H](CCCNC(=N)N)C(=O)N[C@@H](CCCNC(=N)N)C(=O)N[C@@H](CCCNC(=N)N)C(=O)N[C@@H](CCCNC(=N)N)C(=O)N[C@@H](CCC(N)=O)C(=O)N[C@@H](CCCNC(=N)N)C(=O)N[C@@H](CCCNC(=N)N)C(=O)N[C@@H](CCCNC(=N)N)C(N)=O)NC(=O)[C@H](C)NC(=O)[C@H](Cc2csc3ccccc23)NC(=O)[C@H](CCCNC(=N)N)NC(=O)[C@@H](Cc2ccc3ccccc3c2)NC(=O)[C@H](Cc2c[nH]cn2)NC(=O)[C@H](CCC(=O)O)NC1=O
Ki (hMC5-R [1]; Ki hMC5-R, Table 6): 48.3 nM
EC50 (hMC1-R): 38.3 nM
Kb (hMC3-R): 20.2 nM
Kb (hMC4-R): 21.2 nM
EC50 (hMC5-R [2]): > 10000 nM

Compound: C[C@H]1NC(=O)[C@@H](NC(=O)CN2C(=O)N[C@@H](CCCNC(=N)N)C2=O)CSSC[C@@H](C(N)=O)NC(=O)[C@H](Cc2c[nH]c3ccccc23)NC(=O)[C@H](CCCNC(=N)N)NC(=O)[C@@H](Cc2ccc3ccccc3c2)NC(=O)[C@H](Cc2cnc[nH]2)NC1=O [Hydantoin(C(O)-(Arg-Gly))-c(Cys-D-Ala-His-D-2-Nal-Arg-Trp-Cys)-NH2]
Ki (hMC5-R [1]; Ki hMC5, Table 7): 14.6 nM
EC50 (hMC1-R): 96.6 nM
EC50 (hMC3-R): 13.1 nM
EC50 (hMC4-R): 21.2 nM
EC50 (hMC5-R [2]): 103 nM

Compound: CC(=O)N[C@H]1CSSC[C@@H](C(=O)N2CCC[C@H]2C(=O)N2CCC[C@H]2C(=O)N[C@@H](CCCCN)C(=O)N[C@@H](CC(=O)O)C(=O)NCCC(=O)N[C@@H](CCCNC(=N)N)C(=O)N[C@@H](CCCNC(=N)N)C(=O)N[C@@H](CCCNC(=N)N)C(=O)N[C@@H](CCCNC(=N)N)C(=O)N[C@@H](CCCNC(=N)N)C(=O)N[C@@H](CCC(N)=O)C(=O)N[C@@H](CCCNC(=N)N)C(=O)N[C@@H](CCCNC(=N)N)C(=O)N[C@@H](CCCNC(=N)N)C(N)=O)NC(=O)[C@H](C)NC(=O)[C@H](Cc2csc3ccccc23)NC(=O)[C@H](CCCNC(=N)N)NC(=O)[C@@H](Cc2ccc3ccccc3c2)NC(=O)[C@H](Cc2c[nH]cn2)NC(=O)[C@H](CCC(=O)O)NC1=O
EC50 (hMC1-R): 52 nM
Kb (hMC3-R): 170 nM
Kb (hMC4-R): 6.14 nM
EC50 (hMC5-R [2]): 328 nM

Compound: CC(=O)N[C@@H](CCCNC(=N)N)C(=O)N[C@H]1CSSC[C@@H](C(N)=O)NC(=O)[C@H](Cc2c[nH]c3ccccc23)NC(=O)[C@H](CCCNC(=N)N)NC(=O)[C@@H](Cc2ccc3ccccc3c2)NC(=O)[C@H](Cc2c[nH]cn2)NC(=O)[C@@H](C)NC1=O [Ac-Arg-c(Cys-D-Ala-His-D-2-Nal-Arg-Trp-Cys)-NH2]
EC50 (hMC1-R): 193 nM
Kb (hMC3-R): 5.72 nM
Kb (hMC4-R): 1.58 nM
EC50 (hMC5-R [2]): 1110 nM

Compound: CC(=O)N[C@H]1CSSC[C@@H](C(=O)N2CCC[C@H]2C(=O)N2CCC[C@H]2C(=O)N[C@@H](CCCCN)C(=O)N[C@@H](CC(=O)O)C(=O)NCCC(=O)N[C@@H](Cc2ccc(O)cc2)C(=O)NCC(=O)N[C@@H](CCCNC(=N)N)C(=O)N[C@@H](CCCCN)C(=O)N[C@@H](CCCCN)C(=O)N[C@@H](CCCNC(=N)N)C(=O)N[C@@H](CCCNC(=N)N)C(=O)N[C@@H](CCC(N)=O)C(=O)N[C@@H](CCCNC(=N)N)C(=O)N[C@@H](CCCNC(=N)N)C(=O)N[C@@H](CCCNC(=N)N)C(N)=O)NC(=O)[C@H](C)NC(=O)[C@H](Cc2csc3ccccc23)NC(=O)[C@H](CCCNC(=N)N)NC(=O)[C@@H](Cc2ccc3ccccc3c2)NC(=O)[C@H](Cc2c[nH]cn2)NC(=O)[C@H](CCC(=O)O)NC1=O
Ki (hMC5-R [1]; Table 6, read-out: Ki hMC5-R): 15.3 nM
EC50 (hMC1-R; cAMP, CHO-K1 cells expressing hMC1-R, read-out: EC50 hMC1-R): 37.9 nM
Kb (hMC3-R; antagonist potency by Schild analysis, cAMP, CHO-K1 cells expressing hMC3-R, read-out: Kb hMC3-R): 112 nM
Kb (hMC4-R; antagonist potency by Schild analysis, cAMP, CHO-K1 cells expressing hMC4-R, read-out: Kb hMC4-R): 41.1 nM
EC50 (hMC5-R [2]; cAMP, CHO-K1 cells expressing hMC5-R, read-out: EC50 hMC5-R): 1800 nM

EC50 (hMC1-R; Table 11, read-out: EC50 hMC1): 9.97 nM
EC50 (hMC3-R; Table 11, read-out: EC50 hMC3): 3.63 nM
EC50 (hMC4-R; Table 11, read-out: EC50 hMC4): 0.0687 nM
EC50 (hMC5-R [2]; Table 11, read-out: EC50 hMC5): 335 nM
Compound: N=C(N)NCCC[C@@H]1NC(=O)[C@@H](Cc2ccccc2)NC(=O)[C@H](Cc2cnc[nH]2)NC(=O)[C@H](CCC(=O)O)NC(=O)[C@@H](NC(=O)[C@H](CCCNC(=N)N)N2C(=O)CNC2=O)CSSC[C@@H](C(N)=O)NC(=O)[C@H](Cc2c[nH]c3ccccc23)NC1=O [Hydantoin(C(O)-(Gly-Arg))-c(Cys-Glu-His-D-Phe-Arg-Trp-Cys)-NH2]

Compound: C[C@H]1NC(=O)[C@@H](NC(=O)CN2C(=O)CNC2=O)CSSC[C@@H](C(N)=O)NC(=O)[C@H](Cc2c[nH]c3ccccc23)NC(=O)[C@H](CCCNC(=N)N)NC(=O)[C@@H](Cc2ccccc2)NC(=O)[C@H](Cc2cnc[nH]2)NC1=O [Hydantoin(C(O)-(Gly-Gly))-c(Cys-D-Ala-His-D-Phe-Arg-Trp-Cys)-NH2]
Ki (hMC5-R [1]; Ki hMC5, Table 7): 50 nM
EC50 (hMC1-R): 14.2 nM
EC50 (hMC3-R): 2.46 nM
EC50 (hMC4-R): 0.336 nM
EC50 (hMC5-R [2]): 201 nM
